Results reported in patent US20220008537A1, “COMPOUNDS FOR PHOTODYNAMIC THERAPY AND RELATED USES” (GEORGIA STATE UNIVERSITY RESEARCH FOUNDATION, INC., priority 2018, published 2022).

Assays:
pUC19 plasmid DNA = experiment: DNA photocleavage inhibition induced by chemical additives; format: biochemical; conditions: 20 μM dye, 38 μM bp pUC19, 830 nm 300 mW LED laser, pH 7.0
Protocol: Individual DNA cleavage reactions containing 5 μM to 50 μM concentrations of cyanine dye, 38 μM bp of pUC19 plasmid, and 10 mM of sodium phosphate pH 7.0 were prepared in a total volume of 40 μL. In order maintain reaction temperature at 10° C., 22° C., or 37° C., the samples were placed in a thermometer-fitted metal block that was either heated, kept at room temperature, or immersed in an ice bath. While monitoring temperature with the thermometer, the samples were either kept in the dark or were irradiated at time interval ranging from 5 min to 120 min using a light emitting diode (LED) laser (LaserLands) with a peak emission wavelength of either 532 nm (100 mW), 808 nm (300 mW), or 830 nm (300 mW). At the end of the irradiation time interval, a total of 3 μL of electrophoresis loading buffer containing 15.0% (w/v) ficoll and 0.025% (w/v) bromophenol blue) was added to each reaction and 20 μL of the resulting solution was added to one of the wells of 1.5% agarose gel stained with ethidium bromide (0.5 μg/mL, final concentration). Completely loaded gels were then electrophoresed for 60 min at 105 V in a Bio-Rad Laboratories gel box using 1×tris-acetate-EDTA (TAE) containing 0.5 μg/mL ethidium bromide as the running buffer. Electrophoresed gels were visualized at 302 nm with a VWR Scientific LM-20E transilluminator and then photographed with a UVP PhotoDoc-ItTM Imaging System. For quantitating the gels, ImageQuant version 5.2 software was employed. The DNA photocleavage yields were then calculated using the formula: Percent Photocleavage=[(Linear+Nicked DNA)/(Linear+Nicked+Supercoiled DNA)]×100. In an argon-purged glove box, 40 μL photocleavage reactions containing 10 mM sodium phosphate buffer pH 7.0, 20 μM of cyanine dye, and 38 μM bp of pUC19 plasmid were prepared from solutions bubbled with argon and then irradiated at 830 nm for 30 min The procedure was repeated using aerated solutions in a glove box purged with air. A second set of reactions containing 10 mM of sodium phosphate buffer pH 7.0, 38 μM bp pUC19 plasmid DNA and 20 μM of dye were prepared in the presence and absence of either 100 mM of the singlet oxygen scavenger sodium azide, 100 mM of the hydroxyl radical scavenger sodium benzoate, or 84% D2O (v/v). […] After the irradiation, the above DNA reactions were electrophoresed on 1.5% non-denaturing agarose gels, visualized, and quantitated as just described. The percent change in DNA photocleavage was then calculated using the formula, where additive stands for either argon, sodium azide, sodium benzoate, or D2O: Percent Change in Cleavage=[(% Total of Linear and Nicked […] additive-% Total of Linear and Nicked DNAwithout additive)/(% Total of Linear and Nicked DNAwithout additive)]×100. […]

melting point | Compound | Photocleavage inhibition (%) (pUC19 plasmid DNA; Reagent Argon (targets 1O2 & •OH)) | Photocleavage inhibition (%) (pUC19 plasmid DNA; Reagent D2O 84% (v/v) (target 1O2)) | Photocleavage inhibition (%) (pUC19 plasmid DNA; Reagent Sodium azide 100 mM (targets 1O2 > •OH)) | Photocleavage inhibition (%) (pUC19 plasmid DNA; Reagent Sodium benzoate 100 mM (target •OH))
239 °C (dec.) | CN1C=C/C(=C/C=C/C=C/c2cc[n+](C)c3ccccc23)c2ccccc21.[I-] [Dye 4, 1-methyl-4-((1E,3E)-5-((Z)-1-methylquinolin-4(1H)-ylidene)penta-1,3-dien-1-yl)quinolin-1-ium iodide] | – | – | – | –
> 260 °C | CN1C=C/C(=C/C=C(Cl)/C=C/c2cc[n+](C)c3ccccc23)c2ccccc21.[I-] [Dye 5, 4-((1E,3Z)-3-chloro-5-((Z)-1-methylquinolin-4(1H)-ylidene)penta-1,3-dien-1-yl)-1-methylquinolin-1-ium iodide] | 67 ± 3 | 6 ± 1 | 26 ± 3 | 31 ± 2
